biological target: T1, kinase-domain human PKCι (Homo sapiens, UniProt P41743); experiment: PKCι IC50 IMAP fluorescence polarisation assay, kinase-domain enzyme; format: biochemical; settings: kinase domain PKCi at 2 μM ATP; read-out: IC50 in IMAP assay against kinase domain PKCi
T1 construct: Recombinant, kinase-domain human PKCι is expressed and purified in-house; made in house
T1 sequence (P41743 254-522 limits assumed): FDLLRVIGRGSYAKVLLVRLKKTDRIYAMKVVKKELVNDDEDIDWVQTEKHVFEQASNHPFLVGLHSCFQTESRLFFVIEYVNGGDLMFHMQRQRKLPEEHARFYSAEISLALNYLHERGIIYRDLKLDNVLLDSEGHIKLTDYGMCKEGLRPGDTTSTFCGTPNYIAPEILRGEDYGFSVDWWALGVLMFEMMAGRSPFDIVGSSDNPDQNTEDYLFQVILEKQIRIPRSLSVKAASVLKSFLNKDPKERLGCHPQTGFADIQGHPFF
Experimental: Assays are based on the ability of PKCι to phosphorylate a commercially available peptide substrate in vitro. […] Recombinant, full-length human PKCι expressed in Sf21 insect cells is also commercially available. Recombinant, kinase-domain human PKCι is expressed and purified in-house.
The procedure below explains how dose response curves for inhibitors of PKCι are obtained.
Compounds to be tested are dissolved in 100% DMSO. […] 1 μl is plated into 384 well black low-binding flat bottomed assay plates which are used immediately. Dilutions and additions of compound to assay plates are carried out using Matrix WellMate® and Matrix PlateMate® Plus liquid handling systems.
The final concentration of peptide substrate in the assay is 100 nM. […] Relevant controls are included, namely no compound and no enzyme. […] The reaction is allowed to incubate for 60 minutes at room temperature, before the reaction is stopped and developed by the addition of 20 μl IMAP™ development reagent (Molecular Devices). IMAP development reagent consists of 0.25% (v/v) IMAP progressive binding reagent, 17% (v/v) IMAP progressive binding buffer A and 3% (v/v) IMAP progressive binding buffer B. The plates are then incubated for 2 hours at room temperature before being read using an appropriate plate reader, for example a Molecular Devices HT Analyst or a BMG Pherastar.

SMILES | IC50 [µM]
Cc1csc2c(N[C@H]3CCNC3)nc(-c3ccncc3)nc12 [compound 364, (7-Methyl-2-pyridin-4-yl-thieno[3,2-d]pyrimidin-4-yl)-(S)-pyrrolidin-3-yl-amine] | 1 to 10
Cc1csc2c(OC[C@@H]3CCCN3)nc(-c3ccncc3)nc12 [compound 480, 7-Methyl-2-pyridin-4-yl-4-((S)-1-pyrrolidin-2-ylmethoxy)-thieno[3,2-d]pyrimidine] | 10 to 40
Cc1csc2c(O[C@H]3CCNC3)nc(-c3ccncc3)nc12 [compound 483, 7-Methyl-2-pyridin-4-yl-4-((S)-pyrrolidin-3-yloxy)-thieno[3,2-d]pyrimidine] | 10 to 40
CN(CCN)c1nc(-c2ccncc2)nc2c1sc1cccc(Cl)c12 [compound 385, N*1*-(9-Chloro-2-pyridin-4-yl-benzo[4,5]thieno[3,2-d]pyrimidin-4-yl)-N*1*- methyl-ethane-1,2-diamine] | 1 to 10
Cc1csc2c(N3CCCNCC3)nc(-c3ccncc3)nc12 [compound 362, 4-[1,4]Diazepan-1-yl-7-methyl-2-pyridin-4-yl-thieno[3,2-d]pyrimidine] | 0.1 to 1

The next lines start with the values.

IC50 [µM] | SMILES
0.1 to 1 | N[C@H](CNc1nc(-c2ccncc2)nc2c1sc1cccc(Cl)c12)Cc1ccccc1 [compound 372, (S)-N*1*-(9-Chloro-2-pyridin-4-yl-benzo[4,5]thieno[3,2-d]pyrimidin-4-yl)-3-phenyl-propane-1,2-diamine]
10 to 40 | C[C@@H](N)CNc1nc(-c2ccncc2)nc2cc(-c3ccccc3)sc12 [compound 366, (R)-N*1*-(6-Phenyl-2-pyridin-4-yl-thieno[3,2-d]pyrimidin-4-yl)-propane-1,2-diamine]
10 to 40 | C[C@@H](N)CNc1nc(-c2ccncc2)nc2c1sc1ncccc12 [compound 379, (R)-N*1*-(2-Pyridin-4-yl-pyrido[3′,2′:4,5]thieno[3,2-d]pyrimidin-4-yl)-propane-1,2-diamine]
1 to 10 | NCCNc1nc(-c2ccncc2)nc2c1sc1ncccc12 [compound 375, N*1*-(2-Pyridin-4-yl-pyrido[3′,2′:4,5]thieno[3,2-d]pyrimidin-4-yl)-ethane-1,2-diamine]
1 to 10 | Cc1cc(C)c2c(n1)sc1c(NC[C@@H](C)N)nc(-c3ccncc3)nc12 [compound 383, (R)-N*1*-(7,9-Dimethyl-2-pyridin-4-yl-pyrido[3′,2′:4,5]thieno[3,2-d]pyrimidin-4-yl)-propane-1,2-diamine]
10 to 40 | C[C@H](N)CNc1nc(-c2ccncc2)nc2cc(-c3ccc(C(C)(C)C)cc3)sc12 [compound 359, (S)-N*1*-[6-(4-tert-Butyl-phenyl)-2-pyridin-4-yl-thieno[3,2-d]pyrimidin-4-yl]-propane-1,2-diamine]
0.1 to 1 | C[C@H](N)CNc1nc(-c2ccncc2)nc2c1sc1cccc(Cl)c12 [compound 373, (S)-N*1*-(9-Chloro-2-pyridin-4-yl-benzo[4,5]thieno[3,2-d]pyrimidin-4-yl)-propane-1,2-diamine]
10 to 40 | c1cnc2sc3c(N4CCNCC4)nc(-c4ccncc4)nc3c2c1 [compound 376, 4-Piperazin-1-yl-2-pyridin-4-yl-pyrido[3′,2′:4,5]thieno[3,2-d]pyrimidine]

same assay, conditions: kinase domain PKCi at 2 μM ATP; read-out: IC50 in IMAP assay against kinase domain PKCi (Activity)

SMILES | IC50 [µM]
c1n[nH]cc1-c1nc(N2CCCNCC2)c2c3c(sc2n1)CCCC3 [compound 186, 4-[1,4]Diazepan-1-yl-2-(1H-pyrazol-4-yl)-5,6,7,8-tetrahydro-benzo[4,5]thieno[2,3-d]pyrimidine] | 0.1 to 1
CN(CCN)c1nc(-c2ccncc2)nc2sc3c(c12)CCCC3 [compound 15, N*1*-Methyl-N*1*-(2-pyridin-4-yl-5,6,7,8-tetrahydro-benzo[4,5]thieno[2,3-d]pyrimidin-4-yl)-ethane-1,2-diamine] | 0.1 to 1
Cc1n[nH]c(C)c1-c1nc(NC[C@@H](C)N)c2c3c(sc2n1)CCCC3 [compound 193, (R)-N*1*-[2-(3,5-Dimethyl-1H-pyrazol-4-yl)-5,6,7,8-tetrahydro-benzo[4,5]thieno[2,3-d]pyrimidin-4-yl]-propane-1,2-diamine] | 10 to 40
Cc1cccc(C[C@H](N)COc2nc(-c3ccncc3)nc3sc4c(c23)CCCC4)c1 [compound 165, (S)-1-(3-Methyl-benzyl)-2-(2-pyridin-4-yl-5,6,7,8-tetrahydro-benzo[4,5]thieno[2,3-d]pyrimidin-4-yloxy)-ethylamine] | 1 to 10
CC(C)[C@H](N)COc1nc(-c2ccncc2)nc2sc3c(c12)CCCC3 [compound 151, (S)-2-Methyl-1-(2-pyridin-4-yl-5,6,7,8-tetrahydro-benzo[4,5]thieno[2,3-d]pyrimidin-4-yloxymethyl)-propylamine] | 1 to 10
Cc1c(C(N)=O)sc2nc(-c3ccncc3)nc(NCCN)c12 [compound 39, 4-(2-Amino-ethylamino)-5-methyl-2-pyridin-4-yl-thieno[2,3-d]pyrimidine-6-carboxylic acid amide] | 0.1 to 1
N[C@@H](COc1nc(-c2ccncc2)nc2sc3c(c12)CCCC3)c1ccccc1 [compound 147, (R)-1-Phenyl-2-(2-pyridin-4-yl-5,6,7,8-tetrahydro-benzo[4,5]thieno[2,3-d]pyrimidin-4-yloxy)-ethylamine] | 10 to 40
N[C@H](CNc1nc(-c2ccncc2)nc2sc3c(c12)CCCCC3)Cc1ccccc1 [compound 87, (S)-3-Phenyl-N*1*-(2-pyridin-4-yl-6,7,8,9-tetrahydro-5H-10-thia-1,3-diaza-benzo[a]azulen-4-yl)-propane-1,2-diamine] | 0.1 to 1
N[C@@H](COc1nc(-c2ccncc2)nc2sc3c(c12)CCCC3)Cc1ccccc1 [compound 142, (R)-2-Phenyl-1-(2-pyridin-4-yl-5,6,7,8-tetrahydro-benzo[4,5]thieno[2,3-d]pyrimidin-4-yloxymethyl)-ethylamine] | 10 to 40
c1cc(-c2nc(N3CCNCC3)c3c4c(sc3n2)CCCCC4)ccn1 [compound 85, 4-Piperazin-1-yl-2-pyridin-4-yl-6,7,8,9-tetrahydro-5H-10-thia-1,3-diaza-benzo[a]azulene] | 0.1 to 1
Cc1n[nH]c(C)c1-c1nc(NCCN)c2c3c(sc2n1)CCCC3 [compound 182, N*1*-[2-(3,5-Dimethyl-1H-pyrazol-4-yl)-5,6,7,8-tetrahydro-benzo[4,5]thieno[2,3-d]pyrimidin-4-yl]-ethane-1,2-diamine] | 0.1 to 1
C[C@@H]1CN(c2nc(-c3ccncc3)nc3sc4c(c23)CCCC4)C[C@H](C)N1 [compound 9, 4-((3R,5S)-3,5-Dimethyl-piperazin-1-yl)-2-pyridin-4-yl-5,6,7,8-tetrahydro-benzo[4,5]thieno[2,3-d]pyrimidine] | 1 to 10
c1ccc(CN2CCN(c3nc(-c4ccncc4)nc4sc5c(c34)CCCC5)CC2)cc1 [compound 116, 4-(4-Benzyl-piperazin-1-yl)-2-pyridin-4-yl-5,6,7,8-tetrahydro-benzo[4,5]thieno[2,3-d]pyrimidine] | 10 to 40
Cc1sc2nc(-c3ccncc3)nc(NCCN)c2c1C [compound 36, N*1*-(5,6-Dimethyl-2-pyridin-4-yl-thieno[2,3-d]pyrimidin-4-yl)-ethane-1,2-diamine] | 0.1 to 1
CC(C)C[C@@H](N)COc1nc(-c2ccncc2)nc2sc3c(c12)CCCC3 [compound 146, (R)-3-Methyl-1-(2-pyridin-4-yl-5,6,7,8-tetrahydro-benzo[4,5]thieno[2,3-d]pyrimidin-4-yloxymethyl)-butylamine] | 1 to 10
NCCNc1nc(-c2ccncc2)nc2sc3c(c12)CCCCC3 [compound 84, N*1*-(2-pyridin-4-yl-6,7,8,9-tetrahydro-5H-10-thia-1,3-diaza-benzo[a]azulen-4-yl)-ethane-1,2-diamine] | 0.1 to 1
Cc1n[nH]c(C)c1-c1nc(NC[C@@H](N)Cc2ccccc2)c2c3c(sc2n1)CCCC3 [compound 184, (S)-N*1*-[2-(3,5-Dimethyl-1H-pyrazol-4-yl)-5,6,7,8-tetrahydro-benzo[4,5]thieno[2,3-d]pyrimidin-4-yl]-3-phenyl-propane-1,2-diamine] | 1 to 10

Next, values leading:

IC50 [µM] | SMILES
0.1 to 1 | C[C@H](N)CNc1nc(-c2ccncc2)nc2sc3c(c12)CCCCC3 [compound 88, (S)-N*1*-(2-Pyridin-4-yl-6,7,8,9-tetrahydro-5H-10-thia-1,3-diaza-benzo[a]azulen-4-yl)-propane-1,2-diamine]
0.1 to 1 | CC(C)Cc1csc2nc(-c3ccncc3)nc(NC[C@H](C)N)c12 [compound 29, (S)-N*1*-(5-Isobutyl-2-pyridin-4-yl-thieno[2,3-d]pyrimidin-4-yl)-propane-1,2-diamine]
1 to 10 | CC[C@H](N)CNc1nc(-c2ccncc2)nc2sc3c(c12)CCCC3 [compound 68, (S)-N*1*-(2-Pyridin-4-yl-5,6,7,8-tetrahydro-benzo[4,5]thieno[2,3-d]pyrimidin-4-yl)-butane-1,2-diamine]
